Measurements reported in ChEMBL document CHEMBL1201862, “PubChem BioAssay data set” (2004).
Calls of active or inactive are those of the source.

Assays:
cells = type: functional
Caspase-3 = target: T1, Caspase-3 (Homo sapiens, UniProt P42574); type: functional;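 note: Dose-response selectivity test against caspase-3 for candidate inhibitors of sentrin-specific proteases (SENPs)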
T1 sequence (P42574 whole entry): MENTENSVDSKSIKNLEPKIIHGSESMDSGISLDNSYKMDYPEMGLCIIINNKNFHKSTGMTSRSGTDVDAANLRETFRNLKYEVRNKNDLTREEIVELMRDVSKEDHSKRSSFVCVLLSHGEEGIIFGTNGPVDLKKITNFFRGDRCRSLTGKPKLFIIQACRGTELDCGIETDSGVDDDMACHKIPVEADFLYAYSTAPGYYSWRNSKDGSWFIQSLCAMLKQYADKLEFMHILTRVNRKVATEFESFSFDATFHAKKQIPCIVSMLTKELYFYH

[1] = target: T2, Sentrin-specific protease 8 (Homo sapiens, UniProt Q96LD8); type: functional;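 note: luminescence read-out of SENP8 inhibition, dose-response confirmation following an ultra-high-throughput screen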
T2 sequence (Q96LD8 whole entry): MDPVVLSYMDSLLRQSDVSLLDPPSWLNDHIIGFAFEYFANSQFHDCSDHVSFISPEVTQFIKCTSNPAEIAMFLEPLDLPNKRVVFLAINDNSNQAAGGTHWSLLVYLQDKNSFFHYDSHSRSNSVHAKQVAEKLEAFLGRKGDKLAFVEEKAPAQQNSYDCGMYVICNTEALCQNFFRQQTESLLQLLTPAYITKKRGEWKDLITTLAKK

[2] = target: T3, Sentrin-specific protease 6 (Homo sapiens, UniProt Q9GZR1); type: functional;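 note: Luminescence-based dose-response confirmatory assay of SENP6 inhibition, following up an ultra-high-throughput screen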
T3 sequence (Q9GZR1 whole entry): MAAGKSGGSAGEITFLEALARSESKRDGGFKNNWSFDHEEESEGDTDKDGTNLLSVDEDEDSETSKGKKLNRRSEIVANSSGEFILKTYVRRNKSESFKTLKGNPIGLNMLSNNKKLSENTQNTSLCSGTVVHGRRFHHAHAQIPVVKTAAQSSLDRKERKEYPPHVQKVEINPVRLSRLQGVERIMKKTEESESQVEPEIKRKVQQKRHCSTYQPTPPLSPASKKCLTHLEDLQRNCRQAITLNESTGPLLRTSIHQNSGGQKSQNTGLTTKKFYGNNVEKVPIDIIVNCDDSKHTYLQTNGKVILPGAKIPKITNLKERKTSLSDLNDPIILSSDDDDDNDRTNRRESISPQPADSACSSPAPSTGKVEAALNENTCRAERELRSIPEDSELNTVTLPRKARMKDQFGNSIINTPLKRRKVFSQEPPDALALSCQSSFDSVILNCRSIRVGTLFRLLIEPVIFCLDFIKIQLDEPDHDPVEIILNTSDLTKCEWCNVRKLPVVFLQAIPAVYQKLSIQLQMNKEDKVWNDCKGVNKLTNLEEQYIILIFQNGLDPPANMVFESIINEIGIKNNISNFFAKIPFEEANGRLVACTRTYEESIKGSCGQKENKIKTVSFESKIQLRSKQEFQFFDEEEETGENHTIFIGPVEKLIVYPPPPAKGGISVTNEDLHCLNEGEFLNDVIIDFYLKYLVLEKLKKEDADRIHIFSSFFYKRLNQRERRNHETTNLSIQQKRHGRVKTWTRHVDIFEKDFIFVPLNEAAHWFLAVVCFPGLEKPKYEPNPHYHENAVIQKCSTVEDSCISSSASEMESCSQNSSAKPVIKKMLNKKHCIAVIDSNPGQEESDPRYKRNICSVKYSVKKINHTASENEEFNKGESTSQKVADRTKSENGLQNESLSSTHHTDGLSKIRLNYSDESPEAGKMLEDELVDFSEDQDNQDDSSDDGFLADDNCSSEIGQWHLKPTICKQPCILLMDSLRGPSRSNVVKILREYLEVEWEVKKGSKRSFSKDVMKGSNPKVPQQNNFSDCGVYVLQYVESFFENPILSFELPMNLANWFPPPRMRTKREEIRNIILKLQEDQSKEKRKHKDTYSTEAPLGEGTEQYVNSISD

[3] = target: T4, Sentrin-specific protease 7 (Homo sapiens, UniProt Q9BQF6); type: functional;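 note: Luminescence-based dose-response confirmation of ultra-high-throughput screening hits, measuring inhibition of SENP7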
T4 sequence (Q9BQF6 whole entry): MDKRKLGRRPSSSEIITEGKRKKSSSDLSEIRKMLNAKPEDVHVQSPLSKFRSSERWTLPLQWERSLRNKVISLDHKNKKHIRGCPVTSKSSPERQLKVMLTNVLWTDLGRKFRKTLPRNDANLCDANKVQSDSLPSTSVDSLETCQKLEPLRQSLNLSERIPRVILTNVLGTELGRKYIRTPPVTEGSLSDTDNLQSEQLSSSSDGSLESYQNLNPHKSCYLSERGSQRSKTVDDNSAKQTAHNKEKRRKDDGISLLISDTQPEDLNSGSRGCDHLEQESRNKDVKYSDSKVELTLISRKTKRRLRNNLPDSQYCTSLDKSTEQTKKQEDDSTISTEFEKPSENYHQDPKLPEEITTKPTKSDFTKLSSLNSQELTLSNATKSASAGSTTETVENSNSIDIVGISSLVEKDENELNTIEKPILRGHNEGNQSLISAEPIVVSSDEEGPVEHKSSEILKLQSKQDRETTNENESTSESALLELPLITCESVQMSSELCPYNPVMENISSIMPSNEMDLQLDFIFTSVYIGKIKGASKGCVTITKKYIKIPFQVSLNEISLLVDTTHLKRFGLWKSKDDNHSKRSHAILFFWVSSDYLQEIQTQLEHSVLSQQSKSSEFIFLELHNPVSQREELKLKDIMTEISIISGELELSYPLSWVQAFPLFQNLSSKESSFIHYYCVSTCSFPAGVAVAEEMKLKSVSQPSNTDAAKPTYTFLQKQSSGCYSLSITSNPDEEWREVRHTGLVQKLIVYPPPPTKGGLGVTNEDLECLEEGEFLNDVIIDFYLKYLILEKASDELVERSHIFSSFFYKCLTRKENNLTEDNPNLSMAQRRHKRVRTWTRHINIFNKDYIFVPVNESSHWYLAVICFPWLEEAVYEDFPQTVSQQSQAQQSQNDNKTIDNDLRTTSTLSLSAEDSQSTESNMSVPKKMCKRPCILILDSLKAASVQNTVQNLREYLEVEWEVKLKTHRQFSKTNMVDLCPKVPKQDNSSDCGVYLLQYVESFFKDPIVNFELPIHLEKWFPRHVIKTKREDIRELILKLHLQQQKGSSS

SUMO-activating enzyme [4] = target: T5, SUMO-activating enzyme (Homo sapiens, UniProt Q9UBT2); test: inhibitors of in vitro SUMOylation cascade, primary screen, biochemical, HTRF, uHTS (AID 2006); type: protein-complex assay
SUMO-activating enzyme [5] = target: T5, SUMO-activating enzyme; test: SUMOylation inhibitor hit validation, confirmation, SUMOylation inhibitor project, biochemical, AlphaScreen (AID 2018); type: functional
[6] = target: T6, Replicative DNA helicase DnaB (Mycobacterium tuberculosis, UniProt P9WMR3); test: DnaB intein splicing inhibitors, dose response, biochemical, cell-free fluorescence (AID 449749); type: functional
T6 sequence (P9WMR3 whole entry): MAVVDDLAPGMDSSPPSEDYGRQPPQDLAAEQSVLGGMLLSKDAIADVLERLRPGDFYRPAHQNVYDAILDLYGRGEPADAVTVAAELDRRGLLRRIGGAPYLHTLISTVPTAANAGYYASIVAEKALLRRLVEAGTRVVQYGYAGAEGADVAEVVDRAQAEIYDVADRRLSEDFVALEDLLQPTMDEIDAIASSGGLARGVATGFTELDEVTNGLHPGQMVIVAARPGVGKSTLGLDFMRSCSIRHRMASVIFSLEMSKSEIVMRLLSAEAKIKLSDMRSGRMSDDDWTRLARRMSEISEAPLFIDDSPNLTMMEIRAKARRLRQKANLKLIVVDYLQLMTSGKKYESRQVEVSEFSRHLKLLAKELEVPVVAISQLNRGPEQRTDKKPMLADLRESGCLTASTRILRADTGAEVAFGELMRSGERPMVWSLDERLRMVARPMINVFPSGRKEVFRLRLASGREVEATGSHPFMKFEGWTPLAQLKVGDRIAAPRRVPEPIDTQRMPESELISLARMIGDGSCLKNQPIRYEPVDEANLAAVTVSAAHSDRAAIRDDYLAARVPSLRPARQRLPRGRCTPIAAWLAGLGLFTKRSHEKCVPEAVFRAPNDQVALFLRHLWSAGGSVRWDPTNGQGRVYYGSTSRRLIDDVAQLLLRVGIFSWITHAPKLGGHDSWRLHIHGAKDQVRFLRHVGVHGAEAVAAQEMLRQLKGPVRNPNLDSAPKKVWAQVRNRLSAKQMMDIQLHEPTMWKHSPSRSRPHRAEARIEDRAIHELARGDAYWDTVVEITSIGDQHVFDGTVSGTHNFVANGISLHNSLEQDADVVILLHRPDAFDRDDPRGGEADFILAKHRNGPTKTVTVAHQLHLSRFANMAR

[7] = cytotoxicity in HEK-293T cells, dose response, cytotoxicity control for BCR NF-kB inhibitor project, luminescence, B-cell screen hits (AID 489021); type: functional, cell-based;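 note: HEK-293T cells carrying an NF-kB luciferase reporter; cells exposed to compound for about 14 hours before viability readout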
H4 = test: Luminescence Cell-Based Dose Response HTS to Identify Activators of 5'UTR Stem-Loop Driven Prion Protein mRNA Translation in H4 Neuroglioblastoma Cells. [Related pubchem assays: 1829 (Project Summary), 1814 (Primary HTS)]; type: functional; conditions: Homo sapiens
[8] = Luminescence Cell-Based Dose Response HTS to Identify Activators of Luciferase Translation or Activity in H4 […] Cells. [Related pubchem assays: 1829 (Project Summary), 1814 (Primary HTS)]; type: functional
[9] = Luminescence Cell-Based Dose Confirmation HTS to Identify Activators of 5'UTR Stem-Loop Driven Alpha-Synuclein mRNA Translation in H4 Neuroglioblastoma Cells. [Related pubchem assays: 1829 (Project Summary), 1814 (Primary HTS)]; type: functional
Protein RecA = target: T7, Protein RecA (Mycobacterium tuberculosis, UniProt P9WHJ3); test: Fluorescence Cell-Free Homogeneous Dose Retest to Identify Inhibitors of RecA-Intein Splicing Activity. [Related pubchem assays (depositor defined):AID2097, AID2223, AID489010, AID492950]; type: functional
T7 sequence (P9WHJ3 whole entry): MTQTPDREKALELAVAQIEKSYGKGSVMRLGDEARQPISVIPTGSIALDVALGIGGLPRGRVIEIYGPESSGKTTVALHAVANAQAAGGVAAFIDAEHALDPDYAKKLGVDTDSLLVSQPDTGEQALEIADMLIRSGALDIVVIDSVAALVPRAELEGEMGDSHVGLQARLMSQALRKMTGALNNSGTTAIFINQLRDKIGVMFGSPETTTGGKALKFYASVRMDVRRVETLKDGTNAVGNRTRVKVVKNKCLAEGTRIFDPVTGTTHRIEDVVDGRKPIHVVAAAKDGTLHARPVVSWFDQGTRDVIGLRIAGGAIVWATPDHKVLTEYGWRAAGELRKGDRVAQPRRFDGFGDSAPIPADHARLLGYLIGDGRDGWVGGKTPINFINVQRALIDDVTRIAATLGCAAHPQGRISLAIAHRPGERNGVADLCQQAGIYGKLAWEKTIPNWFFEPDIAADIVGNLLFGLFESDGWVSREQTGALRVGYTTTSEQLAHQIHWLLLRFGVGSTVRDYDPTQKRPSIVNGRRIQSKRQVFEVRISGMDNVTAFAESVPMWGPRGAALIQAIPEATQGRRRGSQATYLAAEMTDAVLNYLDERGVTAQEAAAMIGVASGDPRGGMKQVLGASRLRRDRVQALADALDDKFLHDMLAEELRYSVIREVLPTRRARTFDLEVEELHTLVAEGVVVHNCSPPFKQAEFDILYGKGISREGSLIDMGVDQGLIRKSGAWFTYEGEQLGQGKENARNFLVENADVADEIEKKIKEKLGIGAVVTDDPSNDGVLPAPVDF

[10] = target: Eukaryotic translation initiation factor 4E (Mus musculus, UniProt P63073); test: eIF4E–eIF4G protein interaction inhibitors, dose response, biochemical, TR-FRET (AID 855); type: functional;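 note: potency for disrupting eIF4E binding to eIF4GI seen as loss of FRET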
Troponin, cardiac muscle = Troponin, cardiac muscle (Homo sapiens, UniProt P19429+P45379+P63316); test: Fluorescence-based biochemical high throughput dose response assay for activators of the calcium sensitivity of cardiac Regulated Thin Filaments (RTF). [Related pubchem assays (depositor defined):AID493008, AID493018, AID504382, AID504383]; type: protein-complex assay
Escherichia coli = test: microbe, parasite or virus in culture
Vero = test: cells; type: functional; conditions: Chlorocebus sabaeus
[11] = HEp-2 cell cytotoxicity, dose response, cytotoxicity control for RSV inhibitor project, HTS (AID 2410); type: functional; conditions: human respiratory syncytial virus

COc1ccc(-c2nc3ccc(C)cc3c(=O)o2)cc1OC
IC50 (cells): 7.49 µM (active)

O=C(Nc1cccc(Cl)c1)c1ccc(OC(=S)N2CCOCC2)cc1
IC50 (Caspase-3): 31.4 µM (active)
IC50 [1]: > 100 µM (inactive)
IC50 [2]: > 100 µM (inactive)
IC50 [3]: 2.85 µM (active)

NC(=O)CC(NC(=O)Cc1ccc(Br)cc1)c1ccc(N2CCC(Br)CC2)c([N+](=O)[O-])c1 (stereo unspecified)
IC50 (SUMO-activating enzyme [4]): 34.5 µM (active)
IC50 (SUMO-activating enzyme [5]): 28.3 µM (active)

Cc1cs/c(=N\c2cccnc2)n1CC1CCCCC1
IC50 (cells): > 50 µM (active)

CC(C)c1n[nH]c2c1C(c1ccco1)C(C#N)=C(N)O2 (stereo unspecified)
AC50 [6]: 32.4 µM (active)
IC50 [7]: > 80 µM (inactive)
EC50 (H4): 92.5 µM (active)
EC50 [8]: > 120 µM (not active)
EC50 [9]: > 120 µM (not active)
EC50 (Protein RecA): 3.05 µM (active)

NC(=O)NC(=O)COC(=O)c1cccc(NS(=O)(=O)/C=C/c2ccccc2)c1
IC50 [10]: 50 µM (inactive)
EC50 (Troponin, cardiac muscle): > 71.5 µM (inactive)

CC(=O)c1c(C)[nH]c(C(=O)CSc2nnc3ccccn23)c1C
AC50 (Escherichia coli): 27 µM (active)

O=C(CSC1=NS(=O)(=O)c2ccccc2N1)N1CCCCC1
EC50 (Troponin, cardiac muscle): > 71.5 µM (inactive)

O=C(Nc1ccccc1)NC1CS(=O)(=O)CC1O (stereo unspecified)
EC50 (Troponin, cardiac muscle): > 71.5 µM (inactive)

O=C(NC1CC1)c1ccc(N2CCCCC2)c([N+](=O)[O-])c1
AC50 (Escherichia coli): 73.1 µM (active)

O=C(Nc1ccc2c(c1)OCCO2)C1CCCN(S(=O)(=O)c2cccnc2)C1 (stereo unspecified)
AC50 (Escherichia coli): 52.7 µM (active)

N#Cc1ccc(S(=O)(=O)NC2CCCCNC2=O)cc1 (stereo unspecified)
EC50 (Troponin, cardiac muscle): > 71.4 µM (inactive)

COc1ccc(-c2[nH]ncc2CNC(C)c2ccccc2Cl)cc1F (stereo unspecified)
CC50 (Vero): > 25 µM (active)

O=C(COC(=O)c1ccc(O)cc1O)c1ccc2c(c1)OCO2
IC50 (cells): 18.2 µM (active)

Cc1nc([N+](=O)[O-])c(Sc2nc3ccccc3n2C)n1Cc1ccccc1
CC50 [11]: 13.5 µM (active)
CC50 (Vero): 20.8 µM (active)
